Laboratory results taken from patent US9388165B2, “Isoquinoline-5-carboxamide derivative having inhibitory activity for protein kinase” (HANMI PHARM. CO., LTD., priority 2012, dated 2016).
Blank lines part the entries; values can stand above or below the molecule they belong to.

Key:
CDK1 = CDK1 (Homo sapiens (Human), UniProt P06493); assay: Kinase profiling, % inhibition at 1.0 μM; assay type: biochemical; details: compound 1.0 μM; read-out: Inhibitory activity at 1.0 μM (%), CDK1
FGFR4 = FGFR4 (Homo sapiens (Human), UniProt P22455); assay: Kinase profiling, % inhibition at 1.0 μM; assay type: biochemical; details: compound 1.0 μM; read-out: Inhibitory activity at 1.0 μM (%), FGFR4
Method: [The source words this procedure for another target and says it was used here with some conditions changed.] (§1) The compounds prepared in Examples were tested for inhibitory activities against three subtypes of RAF, i.e. RAF1 Y340D Y341D, BRAF normal type and BRAF V600E, using Kinase Profiling Service (Invitrogen) according to the manufacturer's instructions. The levels of the inhibitory activities of the compounds against the enzymes were calculated as % inhibitory activities at various concentrations. Based on the % inhibitory activities, dose-response curves were plotted and IC50 values were calculated using GraphPad Prism software.

Tie-2 = Tie-2 (Homo sapiens (Human), UniProt Q02763); assay: Kinase profiling, % inhibition at 1.0 μM; assay type: biochemical; details: compound 1.0 μM; read-out: Inhibitory activity at 1.0 μM (%), Tie-2
Method: [The source words this procedure for another target and says it was used here with some conditions changed.] as §1

PLK2 = PLK2 (Homo sapiens (Human), UniProt Q9NYY3); assay: Kinase profiling, % inhibition at 1.0 μM; assay type: biochemical; details: compound 1.0 μM; read-out: Inhibitory activity at 1.0 μM (%), PLK2
Method: [The source words this procedure for another target and says it was used here with some conditions changed.] as §1

VEGFR1 = VEGFR1 (Homo sapiens (Human), UniProt P17948); assay: Kinase profiling, % inhibition at 1.0 μM; assay type: biochemical; details: compound 1.0 μM; read-out: Inhibitory activity at 1.0 μM (%), VEGFR1
Method: [The source words this procedure for another target and says it was used here with some conditions changed.] as §1

PLK3 = PLK3 (Homo sapiens (Human), UniProt Q9H4B4); assay: Kinase profiling, % inhibition at 1.0 μM; assay type: biochemical; details: compound 1.0 μM; read-out: Inhibitory activity at 1.0 μM (%), PLK3
Method: [The source words this procedure for another target and says it was used here with some conditions changed.] as §1

c-Kit = c-Kit (Homo sapiens (Human), UniProt P10721); assay: Kinase profiling, % inhibition at 1.0 μM; assay type: biochemical; details: compound 1.0 μM; read-out: Inhibitory activity at 1.0 μM (%), c-Kit
Chain of c-Kit (P10721 26-976): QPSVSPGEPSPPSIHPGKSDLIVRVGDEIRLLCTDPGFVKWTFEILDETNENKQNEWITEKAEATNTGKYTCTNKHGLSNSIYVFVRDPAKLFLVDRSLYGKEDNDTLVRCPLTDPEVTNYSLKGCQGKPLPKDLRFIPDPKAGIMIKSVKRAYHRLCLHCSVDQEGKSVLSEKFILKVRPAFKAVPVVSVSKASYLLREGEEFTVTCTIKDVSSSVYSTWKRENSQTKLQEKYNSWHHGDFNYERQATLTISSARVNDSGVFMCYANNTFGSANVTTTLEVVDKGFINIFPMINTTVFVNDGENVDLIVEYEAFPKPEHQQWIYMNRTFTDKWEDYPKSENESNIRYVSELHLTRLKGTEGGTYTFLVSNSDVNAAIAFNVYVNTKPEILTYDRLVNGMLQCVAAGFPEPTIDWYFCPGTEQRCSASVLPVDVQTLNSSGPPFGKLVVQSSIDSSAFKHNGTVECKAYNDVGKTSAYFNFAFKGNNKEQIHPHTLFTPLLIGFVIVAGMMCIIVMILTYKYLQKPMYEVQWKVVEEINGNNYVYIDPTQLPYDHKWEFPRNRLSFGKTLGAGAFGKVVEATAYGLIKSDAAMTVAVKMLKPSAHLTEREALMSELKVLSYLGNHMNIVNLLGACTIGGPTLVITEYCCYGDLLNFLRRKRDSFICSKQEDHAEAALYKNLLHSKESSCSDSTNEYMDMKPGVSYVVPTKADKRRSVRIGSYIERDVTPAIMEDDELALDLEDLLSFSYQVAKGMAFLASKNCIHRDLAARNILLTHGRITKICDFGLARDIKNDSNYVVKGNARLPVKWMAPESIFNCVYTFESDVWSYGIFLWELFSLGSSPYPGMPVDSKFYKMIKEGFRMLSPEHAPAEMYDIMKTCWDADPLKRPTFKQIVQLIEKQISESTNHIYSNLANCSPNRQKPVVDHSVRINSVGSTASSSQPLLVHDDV
Method: [The source words this procedure for another target and says it was used here with some conditions changed.] as §1

Aurora B = Aurora B (Homo sapiens (Human), UniProt Q96GD4); assay: Kinase profiling, % inhibition at 1.0 μM; assay type: biochemical; details: compound 1.0 μM; read-out: Inhibitory activity at 1.0 μM (%), Aurora B
Chain of Aurora B (Q96GD4 whole entry): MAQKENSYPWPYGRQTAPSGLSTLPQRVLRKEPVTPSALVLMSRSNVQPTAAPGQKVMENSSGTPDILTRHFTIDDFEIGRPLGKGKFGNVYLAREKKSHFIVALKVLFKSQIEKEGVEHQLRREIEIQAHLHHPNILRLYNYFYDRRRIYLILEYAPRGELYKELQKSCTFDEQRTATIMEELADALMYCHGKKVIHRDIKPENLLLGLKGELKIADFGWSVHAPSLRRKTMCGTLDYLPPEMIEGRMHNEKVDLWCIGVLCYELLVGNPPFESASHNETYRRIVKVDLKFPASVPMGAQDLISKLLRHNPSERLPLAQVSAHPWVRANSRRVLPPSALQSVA
Method: [The source words this procedure for another target and says it was used here with some conditions changed.] as §1

C-Raf = C-Raf (Homo sapiens (Human), UniProt P04049, Y340D/Y341D); assay: Inhibitory activity against C-Raf kinase (Invitrogen Kinase Profiling Service); assay type: biochemical
Chain of C-Raf (P04049 whole entry Y340D/Y341D): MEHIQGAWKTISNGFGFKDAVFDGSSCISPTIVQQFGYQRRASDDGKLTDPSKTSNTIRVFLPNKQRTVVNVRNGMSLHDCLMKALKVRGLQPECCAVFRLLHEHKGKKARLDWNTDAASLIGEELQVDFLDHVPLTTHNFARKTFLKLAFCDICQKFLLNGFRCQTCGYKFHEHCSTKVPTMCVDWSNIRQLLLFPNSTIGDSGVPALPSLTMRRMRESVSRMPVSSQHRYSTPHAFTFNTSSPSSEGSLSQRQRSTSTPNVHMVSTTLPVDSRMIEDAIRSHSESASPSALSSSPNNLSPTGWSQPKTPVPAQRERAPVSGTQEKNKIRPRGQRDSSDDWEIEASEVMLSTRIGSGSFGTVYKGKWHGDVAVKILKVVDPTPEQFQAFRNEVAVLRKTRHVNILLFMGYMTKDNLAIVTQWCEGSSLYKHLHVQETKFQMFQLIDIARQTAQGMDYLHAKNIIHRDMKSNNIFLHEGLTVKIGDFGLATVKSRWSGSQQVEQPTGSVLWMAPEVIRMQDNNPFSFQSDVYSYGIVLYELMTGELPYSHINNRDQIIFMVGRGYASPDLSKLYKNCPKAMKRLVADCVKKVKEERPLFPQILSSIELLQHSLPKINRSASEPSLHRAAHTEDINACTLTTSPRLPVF
Method: as §1

B-Raf (WT) = B-Raf (WT) (Homo sapiens (Human), UniProt P15056); assay: Kinase profiling, IC50; assay type: biochemical; details: read-out: Inhibitory activity (IC50, nM), B-Raf (WT)
Method: as §1

PDGFR-β = PDGFR-β (Homo sapiens (Human), UniProt P09619); assay: Kinase profiling, IC50; assay type: biochemical; details: read-out: Inhibitory activity (IC50, nM), PDGFR-β
Chain of PDGFR-β (P09619 33-1106): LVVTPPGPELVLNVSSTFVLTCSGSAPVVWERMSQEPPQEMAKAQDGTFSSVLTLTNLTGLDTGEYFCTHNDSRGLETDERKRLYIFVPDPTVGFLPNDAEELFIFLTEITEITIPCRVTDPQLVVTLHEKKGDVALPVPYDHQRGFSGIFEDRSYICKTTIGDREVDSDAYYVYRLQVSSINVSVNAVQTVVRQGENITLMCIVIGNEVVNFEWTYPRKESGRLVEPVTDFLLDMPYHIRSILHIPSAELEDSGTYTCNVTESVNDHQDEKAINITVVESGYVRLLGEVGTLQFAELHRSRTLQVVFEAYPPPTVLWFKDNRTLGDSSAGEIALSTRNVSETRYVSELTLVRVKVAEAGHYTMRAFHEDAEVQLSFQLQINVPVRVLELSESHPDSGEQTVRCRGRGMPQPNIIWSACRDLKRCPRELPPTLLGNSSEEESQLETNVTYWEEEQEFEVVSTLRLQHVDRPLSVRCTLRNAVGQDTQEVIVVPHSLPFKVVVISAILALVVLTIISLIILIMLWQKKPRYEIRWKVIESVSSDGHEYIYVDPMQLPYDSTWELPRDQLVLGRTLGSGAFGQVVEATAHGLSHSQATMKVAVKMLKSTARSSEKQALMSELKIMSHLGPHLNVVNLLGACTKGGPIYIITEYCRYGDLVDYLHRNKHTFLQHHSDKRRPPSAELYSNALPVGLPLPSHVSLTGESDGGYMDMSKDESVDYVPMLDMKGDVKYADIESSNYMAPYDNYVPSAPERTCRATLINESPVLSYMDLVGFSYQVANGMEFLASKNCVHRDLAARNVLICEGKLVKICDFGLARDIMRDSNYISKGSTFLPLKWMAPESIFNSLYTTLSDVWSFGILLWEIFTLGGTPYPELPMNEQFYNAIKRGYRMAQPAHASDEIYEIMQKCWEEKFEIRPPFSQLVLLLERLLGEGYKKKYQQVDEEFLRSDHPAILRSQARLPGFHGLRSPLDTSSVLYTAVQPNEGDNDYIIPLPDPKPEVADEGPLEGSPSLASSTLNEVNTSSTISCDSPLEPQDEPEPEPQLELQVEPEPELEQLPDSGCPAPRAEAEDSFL
Method: [The source words this procedure for another target and reports this target under the same test.] as §1

Abl = Abl (Homo sapiens (Human), UniProt P00519); assay: Kinase profiling, IC50; assay type: biochemical; details: read-out: Inhibitory activity (IC50, nM), Abl
Method: [The source words this procedure for another target and reports this target under the same test.] as §1

Src = Src (Homo sapiens (Human), UniProt P12931); assay: Kinase profiling, IC50; assay type: biochemical; details: read-out: Inhibitory activity (IC50, nM), Src
Method: [The source words this procedure for another target and reports this target under the same test.] as §1

FGFR-2 = FGFR-2 (Homo sapiens (Human), UniProt P21802); assay: Kinase profiling, IC50; assay type: biochemical; details: read-out: Inhibitory activity (IC50, nM), FGFR-2
Method: [The source words this procedure for another target and reports this target under the same test.] as §1

VEGFR-2 = VEGFR-2 (Homo sapiens (Human), UniProt P35968); assay: Kinase profiling, IC50; assay type: biochemical; details: read-out: Inhibitory activity (IC50, nM), VEGFR-2
Method: [The source words this procedure for another target and reports this target under the same test.] as §1

B-Raf (V600E) = B-Raf (V600E) (Homo sapiens (Human), UniProt P15056, V600E); assay: Kinase profiling, IC50; assay type: biochemical; details: read-out: Inhibitory activity (IC50, nM), B-Raf (V600E)
Method: as §1

IGF-1R = IGF-1R (Homo sapiens (Human), UniProt P08069); assay: Kinase profiling, IC50; assay type: biochemical; details: read-out: Inhibitory activity (IC50, nM), IGF-1R
Method: [The source words this procedure for another target and reports this target under the same test.] as §1

FLT-3 = FLT-3 (Homo sapiens (Human), UniProt P36888); assay: Kinase profiling, IC50; assay type: biochemical; details: read-out: Inhibitory activity (IC50, nM), FLT-3
Method: [The source words this procedure for another target and reports this target under the same test.] as §1

EGFR = EGFR (Homo sapiens (Human), UniProt P00533); assay: Kinase profiling, IC50; assay type: biochemical; details: read-out: Inhibitory activity (IC50, nM), EGFR
Method: [The source words this procedure for another target and reports this target under the same test.] as §1

Her-2 = Her-2 (Homo sapiens (Human), UniProt P04626); assay: Kinase profiling, IC50; assay type: biochemical; details: read-out: Inhibitory activity (IC50, nM), Her-2
Method: [The source words this procedure for another target and reports this target under the same test.] as §1

FGFR-1 = FGFR-1 (Homo sapiens (Human), UniProt P11362); assay: Kinase profiling, IC50; assay type: biochemical; details: read-out: Inhibitory activity (IC50, nM), FGFR-1
Method: [The source words this procedure for another target and reports this target under the same test.] as §1

PDGFR-α = PDGFR-α (Homo sapiens (Human), UniProt P16234); assay: Kinase profiling, IC50; assay type: biochemical; details: read-out: Inhibitory activity (IC50, nM), PDGFR-α
Chain of PDGFR-α (P16234 24-1089): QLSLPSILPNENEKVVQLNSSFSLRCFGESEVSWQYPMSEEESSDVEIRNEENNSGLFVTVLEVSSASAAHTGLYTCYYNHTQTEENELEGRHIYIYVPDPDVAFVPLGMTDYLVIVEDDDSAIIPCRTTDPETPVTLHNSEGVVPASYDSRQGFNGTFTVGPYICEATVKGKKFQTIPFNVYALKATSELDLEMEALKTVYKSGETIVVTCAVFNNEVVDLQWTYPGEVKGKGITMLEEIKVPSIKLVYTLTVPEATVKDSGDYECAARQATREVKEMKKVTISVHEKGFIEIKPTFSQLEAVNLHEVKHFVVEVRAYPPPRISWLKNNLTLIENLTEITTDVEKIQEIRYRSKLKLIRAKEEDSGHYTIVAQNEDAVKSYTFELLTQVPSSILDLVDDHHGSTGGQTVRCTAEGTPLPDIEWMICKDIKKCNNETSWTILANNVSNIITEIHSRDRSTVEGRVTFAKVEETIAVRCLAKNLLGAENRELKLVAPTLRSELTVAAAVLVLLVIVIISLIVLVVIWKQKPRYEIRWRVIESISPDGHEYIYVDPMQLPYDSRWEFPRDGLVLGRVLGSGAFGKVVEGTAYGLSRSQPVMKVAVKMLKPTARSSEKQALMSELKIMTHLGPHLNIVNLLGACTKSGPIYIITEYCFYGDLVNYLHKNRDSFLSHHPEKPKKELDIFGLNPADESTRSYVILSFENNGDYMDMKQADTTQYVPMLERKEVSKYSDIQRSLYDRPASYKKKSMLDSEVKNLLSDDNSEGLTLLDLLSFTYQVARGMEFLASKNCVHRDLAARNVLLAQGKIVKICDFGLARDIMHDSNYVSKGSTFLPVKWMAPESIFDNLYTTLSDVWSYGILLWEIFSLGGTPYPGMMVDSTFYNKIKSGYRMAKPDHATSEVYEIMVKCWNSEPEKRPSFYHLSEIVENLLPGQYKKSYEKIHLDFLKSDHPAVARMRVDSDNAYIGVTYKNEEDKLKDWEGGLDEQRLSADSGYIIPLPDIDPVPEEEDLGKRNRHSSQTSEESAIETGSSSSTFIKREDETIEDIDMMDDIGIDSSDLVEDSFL
Method: [The source words this procedure for another target and reports this target under the same test.] as §1

[1] = system: HepG2 cell lines (hepatoma carcinoma cell); assay: Inhibition on cell proliferation of HepG2 (SRB assay); assay type: cell-based; details: Homo sapiens, 72 hours treatment, SRB staining, read-out: Inhibitory activities against HepG2 (IC50)
Method: HepG2 cell lines (ATCC #HB-8065™) were obtained from ATCC (American type culture collection; Rockville, Md.). HepG2 cell lines were incubated in a MEM medium supplemented with 10% FBS (Gibco) and 1% penicillin/streptomycin (Gibco) under 37° C., 5% CO2 and 95% air. The carcinoma cells grown on the growth medium were transferred into a 96-well plate at a density of 5,000 cells/well (HepG2), and cultured for 18 hours or more. The cells were treated with 10 μM˜0.1 nM of the test compounds, and cultured for 72 hours. Subsequently, the cells were fixed with 10% TCA (trichloroacetic acid) and stained with SRB (sulforhodamine B), and absorbance values were measured at 540 nm. Then, IC50 values, i.e., the concentration of a compound to cause 50% reduction in proliferation of cancer cells, were calculated therefrom. The growth rates of cancer cells were calculated by Equation 1 or 2. [(Ti−Tz)/(C−Tz)]×100 (in case Ti>Tz) [Equation 1] [(Ti−Tz)/Tz]×100 (in case Ti<Tz) [Equation 2]
In Equations 1 and 2, ‘Tz’ refers to a the absorbance value measured in the cells just before the application of the test compound. ‘C’ refers to the absorbance value measured in the […], and ‘Ti’ refers to the absorbance value measured in the cells treated with the test compounds.
IC50 value is the concentration of the test compound when the value of Equation 1 is 50, which indicates the concentration of the test compound needed to reduce the growth of cancer cells to 50%. On each measurement, the test compounds were compared with a reference.

Aurora A = Aurora A (Homo sapiens (Human), UniProt O14965); assay: Kinase profiling, % inhibition at 1.0 μM; assay type: biochemical; details: compound 1.0 μM; read-out: Inhibitory activity at 1.0 μM (%), Aurora A
PLK1 = PLK1 (Homo sapiens (Human), UniProt P53350); assay: Kinase profiling, % inhibition at 1.0 μM; assay type: biochemical; details: compound 1.0 μM; read-out: Inhibitory activity at 1.0 μM (%), PLK1
Chain of PLK1 (P53350 whole entry): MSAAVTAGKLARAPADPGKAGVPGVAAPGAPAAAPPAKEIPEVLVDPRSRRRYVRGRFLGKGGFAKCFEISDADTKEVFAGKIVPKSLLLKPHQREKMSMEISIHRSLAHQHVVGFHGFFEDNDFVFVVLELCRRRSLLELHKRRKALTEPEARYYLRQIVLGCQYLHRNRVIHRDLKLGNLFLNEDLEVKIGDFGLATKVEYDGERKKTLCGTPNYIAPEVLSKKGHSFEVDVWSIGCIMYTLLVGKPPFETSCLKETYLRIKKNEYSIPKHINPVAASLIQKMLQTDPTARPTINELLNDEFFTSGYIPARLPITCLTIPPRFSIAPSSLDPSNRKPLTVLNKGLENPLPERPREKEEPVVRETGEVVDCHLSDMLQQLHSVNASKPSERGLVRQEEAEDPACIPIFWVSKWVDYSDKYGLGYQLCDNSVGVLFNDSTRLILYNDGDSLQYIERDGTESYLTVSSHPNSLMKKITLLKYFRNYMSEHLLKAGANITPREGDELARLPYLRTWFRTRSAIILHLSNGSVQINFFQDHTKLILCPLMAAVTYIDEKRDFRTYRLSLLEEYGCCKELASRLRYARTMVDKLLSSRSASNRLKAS

CDK2 = CDK2 (Homo sapiens (Human), UniProt P24941); assay: Kinase profiling, % inhibition at 1.0 μM; assay type: biochemical; details: compound 1.0 μM; read-out: Inhibitory activity at 1.0 μM (%), CDK2

inhibition at 1 µM (CDK1): 9% | inhibition at 1 µM (FGFR4): 7% | inhibition at 1 µM (Tie-2): 20% | inhibition at 1 µM (PLK2): 7% | inhibition at 1 µM (VEGFR1): 9% | inhibition at 1 µM (PLK3): 9% | inhibition at 1 µM (c-Kit): 34% | inhibition at 1 µM (Aurora B): 23% | IC50 (C-Raf): 6.1 nM | IC50 (B-Raf (WT)): 87 nM | IC50 (PDGFR-β): 66 nM | IC50 (Abl): > 2500 nM | IC50 (Src): > 2500 nM | IC50 (FGFR-2): > 2500 nM | IC50 (VEGFR-2): 261 nM | IC50 (B-Raf (V600E)): 61 nM | IC50 (IGF-1R): > 2500 nM | IC50 (FLT-3): > 2500 nM | IC50 (EGFR): > 2500 nM | IC50 (Her-2): > 2500 nM | IC50 (FGFR-1): > 2500 nM | IC50 (PDGFR-α): 393 nM | IC50 [1]: 210 nM | inhibition at 1 µM (Aurora A): 62% | inhibition at 1 µM (PLK1): -1% | inhibition at 1 µM (CDK2): 6%
Compound: Cc1ccc(NC(=O)c2cccc(C(F)(F)F)c2)cc1NC(=O)c1cccc2c(N)nccc12 [Example 1, 1-amino-N-(2-methyl-5-(3-(trifluoromethyl)benzamido)phenyl)isoquinoline-5-carboxamide]

IC50 (C-Raf): 11 nM | IC50 [1]: 365 nM
Compound: Cc1ccc(C(=O)Nc2cccc(C(F)(F)F)c2)cc1NC(=O)c1cccc2c(NC(C)(C)C)nccc12 [Example 2, 1-(t-butylamino)-N-(2-methyl-5-((3-(trifluoromethyl)phenyl)carbamoyl)phenyl)isoquinoline-5-carboxamide]

IC50 (C-Raf): 2.8 nM | IC50 [1]: 131 nM
Compound: Cc1ccc(C(=O)Nc2cccc(C(F)(F)F)c2)cc1NC(=O)c1cccc2c(N)nccc12 [Example 3, 1-amino-N-(2-methyl-5-((3-(trifluoromethyl)phenyl)carbamoyl)phenyl)isoquinoline-5-carboxamide]

IC50 (C-Raf): 10.7 nM
Compound: Cc1ccc(C(=O)Nc2ccc(Cl)c(C(F)(F)F)c2)cc1NC(=O)c1cccc2c(N)nccc12 [Example 4, 1-amino-N-(5-((4-chloro-3-(trifluoromethyl)phenyl)carbamoyl)-2-methylphenyl)isoquinoline-5-carboxamide]

IC50 (C-Raf): 6.4 nM
Compound: CCN1CCN(Cc2ccc(NC(=O)c3ccc(C)c(NC(=O)c4cccc5c(NC(C)(C)C)nccc45)c3)cc2C(F)(F)F)CC1 [Example 6, 1-(t-butylamino)-N-(5-((4-((4-ethylpiperazin-1-yl)methyl)-3-(trifluoromethyl)phenyl)carbamoyl)-2-methylphenyl)isoquinoline-5-carboxamide]

IC50 (C-Raf): 20.5 nM
Compound: Cc1ccc(C(=O)Nc2ccccc2)cc1NC(=O)c1cccc2c(NC(C)(C)C)nccc12 [Example 8, 1-(t-butylamino)-N-(2-methyl-5-(phenylcarbamoyl)phenyl)isoquinoline-5-carboxamide]

IC50 (C-Raf): 94.8 nM
Compound: Cc1cn(-c2cc(NC(=O)c3ccc(C)c(NC(=O)c4cccc5c(N)nccc45)c3)cc(C(F)(F)F)c2)cn1 [Example 11, 1-amino-N-(2-methyl-5-((3-(4-methyl-1H-imidazol-1-yl)-5-(trifluoromethyl)phenyl)carbamoyl)phenyl)isoquinoline-5-carboxamide]

IC50 (C-Raf): 108 nM
Compound: Cc1ccc(NC(=O)Nc2cccc(C(F)(F)F)c2)cc1NC(=O)c1cccc2c(N)nccc12 [Example 14, 1-amino-N-(2-methyl-5-(3-(3-(trifluoromethyl)phenyl)ureido)phenyl)isoquinoline-5-carboxamide]

IC50 [1]: > 10000 nM
Compound: CCCS(=O)(=O)Nc1ccc(F)c(C(=O)c2c[nH]c3ncc(-c4ccc(Cl)cc4)cc23)c1F [reference, Vemurafenib, reference compound]
